# In patent US20220315574A1, “Beta-Arrestin-Modulating Compounds and Methods of Using Same” (Duke University, priority 2019, published 2022):
# Experiments:
# [1] = target: T1, βarr2 recruitment to agonist-activated β2V2R (Homo sapiens, UniProt P32121); experiment: DiscoveRx PathHunter β-arrestin recruitment assay in U2OS cells; type: cell-based; conditions: series of compound concentrations, 30 min pretreatment, isoproterenol dose-response
# T1 construct: host or cells: U2OS
# Description: β-arrestin recruitment to the agonist-activated receptor (02V2R) was measured using the DiscoveRx PathHunter β-arrestin assay (Ahn, S. et al. Allosteric “beta-blocker” isolated from a DNA-encoded small molecule library. Proc Natl Acad Sci U SA 114, 1708-1713, doi:10.1073/pnas.1620645114 (2017)). […] Agonist-stimulated recruitment of βarr2 to the receptor results in the formation of functionally active β-gal enzyme. Addition of substrate generates a chemiluminescence signal directly correlated to the extent of recruitment. U2OS cells co-expressing β2V2R and βarr2 were plated in 96-well clear-bottomed plates at a density of 25,000 cells per well (80 μL per well), 24 hours prior to compound treatment. On the day of experiment, cells were first treated with compound or vehicle for 30 min, followed by agonist (Iso) stimulation for 60 min at 37° C. Cells were then treated with PathHunter™ detection reagents for 90 min at 37° C., and luminescence signals were measured using a CLARIOstar microplate reader (BMG Labtech Inc., Cary, N.C.).
# βarr2 = βarr2 (Rattus norvegicus, UniProt P29067); experiment: Negative-stain electron microscopy, 2D class averages of βarr2; design: final βarr2 (truncated βarr2 at 394) concentration of ˜1 mg/mL; made in house; conditions: control βarr 97% monomeric
# Description: To prepare for EM visualization of the architecture and structural organization of βarr2-Cmpd30 complexes, purified βarr2 (394) was diluted to 0.5 μM and incubated with 5 μM Cmpd-30 or vehicle (DMSO) in HN buffer (20 mM HEPES pH 7.4 and 150 mM NaCl) for 7 min at room temperature followed by dilution 10× into HN buffer containing 1 μM Cmpd-30, before negative staining. The positive control, βarr2 bound to IP6 sample was prepared similarly (5 μM and 250 μM, respectively) and was diluted 100× into HN buffer containing 10 μM IP6. Grids were prepared using conventional negative-staining protocols as described previously (Peisley, A. & Skiniotis, G. 2D Projection Analysis of GPCR Complexes by Negative Stain Electron Microscopy. Methods Mol Biol 1335, 29-38, doi:10.1007/978-1-4939-2914-6_3 (2015). Briefly, 3 μL of samples were applied onto a glow-discharged EM carbon-coated copper grid, adsorbed on the grid surface, blotted, stained, and air dried before imaging. EM grids were examined with a FEI Tecnai G2 Twin electron microscope and operated at an acceleration voltage of 120 kV. Images were recorded with an Eagle 2K CCD camera at a magnification of ×65,200 and a defocus value of ˜1.5 μm. Two-dimensional EM reference-free alignment and classification of particle projections were performed with the iterative stable alignment and clustering procedure (ISAC)(Yang, Z., et al., Iterative stable alignment and clustering of 2D transmission electron microscope images. Structure 20, 237-247, doi:10.1016/j.str.2011.12.007 (2012)). EM single particles were both automatically and manually selected using Boxer (part of the EMAN 2.1 software suite)(Tang, G. et EMAN2: an extensible image processing suite for electron microscopy. J Struct Biol 157, 38-46, doi:10.1016/j.jsb.2006.05.009 (2007)). A total of ˜250,000 0° particles projections were picked representing all the three βarr2 samples (with vehicle, Cmpd-30 or IP6) and windowed into 96×96-pixel images (with the RELION 2.1-beta-1 software package) and subjected to ISAC. […]
# T1 sequence (P32121 whole entry): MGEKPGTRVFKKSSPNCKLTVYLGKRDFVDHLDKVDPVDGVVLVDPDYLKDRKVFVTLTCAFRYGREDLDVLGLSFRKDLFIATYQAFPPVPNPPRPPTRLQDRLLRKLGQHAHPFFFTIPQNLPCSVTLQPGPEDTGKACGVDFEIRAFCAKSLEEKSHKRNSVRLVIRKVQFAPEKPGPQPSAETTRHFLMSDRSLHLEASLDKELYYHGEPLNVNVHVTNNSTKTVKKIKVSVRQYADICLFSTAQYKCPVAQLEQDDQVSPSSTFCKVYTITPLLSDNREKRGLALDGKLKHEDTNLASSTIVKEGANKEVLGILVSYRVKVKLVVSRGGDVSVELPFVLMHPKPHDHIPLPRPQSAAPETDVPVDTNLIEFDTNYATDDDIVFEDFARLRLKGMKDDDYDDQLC
# βarr2, sequence (P29067 1-394): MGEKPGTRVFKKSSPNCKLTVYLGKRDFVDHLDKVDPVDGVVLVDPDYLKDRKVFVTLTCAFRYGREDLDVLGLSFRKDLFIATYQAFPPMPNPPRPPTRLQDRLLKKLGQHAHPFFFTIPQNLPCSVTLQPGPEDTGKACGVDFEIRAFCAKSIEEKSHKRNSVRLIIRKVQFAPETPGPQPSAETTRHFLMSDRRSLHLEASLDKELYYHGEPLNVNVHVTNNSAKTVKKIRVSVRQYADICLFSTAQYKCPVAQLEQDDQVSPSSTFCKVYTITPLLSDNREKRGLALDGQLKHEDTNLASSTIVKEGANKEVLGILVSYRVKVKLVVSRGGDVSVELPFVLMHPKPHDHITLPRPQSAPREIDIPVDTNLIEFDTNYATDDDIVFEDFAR
maximal agonist induced βarr recruitment response [1],class averages represented as homo-oligomers (dimers/trimers) (βarr2),SMILES
significantly diminished,–,"COc1cc(Cc2nccc3cc(OC)c(OC)cc23)c(C(C)=O)cc1OC [C29, 1-[2-[(6,7-dimethoxyisoquinolin-1-yl)methyl]-4,5-dimethoxyphenyl]ethanone]"
–,100%,"O=P(O)(O)OC1C(OP(=O)(O)O)C(OP(=O)(O)O)C(OP(=O)(O)O)C(OP(=O)(O)O)C1OP(=O)(O)O (centres unmarked) [IP6, inositol hexakisphosphate, reference compound]"
